Test results: patent US6677326B2 (Arakis, Ltd., priority 1999, dated 2004)

Columns and labels:
[1] = Proposed equivalent dose in chronotherapeutic administration; settings: proposed clinical dose
[2] = BNF 37 March 1999; non-chronotherapeutic; cited from earlier work
[3] = tested on: IL-6; test: Same study: serum IL-6 concentration at 08.30; format: in vivo, patients
Procedure: (§1) Serological: Serum samples were obtained at 08.30, kept on ice for up to 1 hour, separated and stored at −70° C. to measure: C-reactive protein (CRP); IL-6 concentration; IL-6 soluble receptor (IL-6sR) concentration; hyaluronate (HA) concentration.

[4] = human, in vivo, 1.25 mg
[5] = tested on: C-reactive protein (CRP); test: Same study: serum C-reactive protein at 08.30; format: in vivo, patients
Procedure: as §1

[6] = tested on: hyaluronate (HA); test: Same study: serum hyaluronate concentration at 08.30; format: in vivo, patients; design: unit not given beside the values; settings: mean, serum 08.30
[7] = tested on: patients with rheumatoid arthritis; test: Assessor-blind study of prednisolone 1 mg and 5 mg given at 02.00: clinical outcomes; format: in vivo; settings: for More or Less (arthritis worse: -1 morning, 0 equal, +1 afternoon) / Pain (VAS) / Painful Joints (tender joint count, n=28) / Swollen Joints (swollen joint count, n=28) / Cln Opn (clinician opinion of condition, VAS) / EMS (morning stiffness) / Pt Opn (patient opinion of condition, VAS): mean; for Pain (VAS) / Painful Joints (tender joint count, n=28) / Swollen Joints (swollen joint count, n=28): 08.30; for Cln Opn (clinician opinion of condition, VAS) / EMS (morning stiffness) / Pt Opn (patient opinion of condition, VAS): 12.00
Source text: Patients stayed the night in hospital but were free to be up and about and to leave the hospital during the day. […] Blood samples and clinical assessments were made at 08.30 and further clinical assessments related to symptoms on the day of drug administration at 12.00 and 08.30 the following day (except the final day when this last assessment was made before departure from the hospital). […] Patients went home on Friday afternoon but returned the following Monday to repeat the procedure. […] The patient and assessor were not aware of which dose was given.
Clinical: Outcome was measured at 08.30 each day for: swollen joint count (n=28); tender joint count (n=28); pain (0.100 mm, VAS). Outcome was measured at 12.00 each day for: morning stiffness (minutes); patient opinion of condition (0-100 mm, VAS); clinician opinion of condition (0-100 mm, VAS). Outcome was measured the following day for: whether the arthritis was worse in the morning or afternoon on the previous day (−1 morning, 0 equal, +1 afternoon).
The assessor was not aware of the treatment order allocation (and probably remained blind), but no placebo tablets were used and it was possible for a patient to be un-blind.
Informed consent was obtained and the patient prescription written by a doctor not associated with trial evaluation. Medication was dispensed at 2 a.m. on each treatment day after gently waking the patient. The patient was encouraged to settle back to sleep immediately.
On the morning before medication and on each morning on the day of medication, blood samples were taken at 8.30 a.m. and outcome assessments recorded then, and at noon, as indicated above.
Symptoms, signs and laboratory results were compared within and between patients, but the main assessment was visual inspection of the overall pattern of response. Means and standard deviations were used to define variation rates and for calculating trial size for future studies. An overall assessment of practicality and the potential for more frequent (but smaller volume) blood taking was made by discussion amongst the staff and patients involved.
This patient's assessments have been included normally in the first week, but in the second week they have been used differently.

[8] = tested on: rheumatoid arthritis; settings: daily dosage of 7.5 mg; Kirwan 1995; cited from earlier work
[9] = BNF 37 March 1999; cited from earlier work
[10] = Dose 1 mg at 02.00, Day 1, mean, serum 08.30
[11] = Dose 1 mg at 02.00, Day 2, mean, serum 08.30
[12] = Dose 1 mg at 02.00, Day 3, mean, serum 08.30
[13] = Dose 5 mg at 02.00, Day 11, mean, serum 08.30
[14] = Dose 5 mg at 02.00, Day 12, mean, serum 08.30
[15] = Dose 5 mg at 02.00, Day 13, mean, serum 08.30
[16] = 1 mg prednisolone, three patients

## CC(=O)OCC(=O)[C@@]1(O)CC[C@H]2[C@@H]3CCC4=CC(=O)CC[C@]4(C)[C@H]3C(=O)C[C@@]21C [cortisone acetate]
[1]
  Equivalent dose in chronotherapeutic administration, equal to 1 mg prednisolone: 5 mg
[2]
  Dose equal to 5 mg prednisolone (Normal dosing): 25 mg

## CC(=O)OCC(=O)[C@@]12N=C(C)O[C@@H]1C[C@H]1[C@@H]3CCC4=CC(=O)C=C[C@]4(C)[C@H]3[C@@H](O)C[C@@]12C [deflazacort]
[1]
  Equivalent dose in chronotherapeutic administration, equal to 1 mg prednisolone: 1.2 mg
[2]
  Dose equal to 5 mg prednisolone (Normal dosing): 6 mg

## C[C@]12CCC(=O)C=C1CC[C@@H]1[C@@H]2[C@@H](O)C[C@@]2(C)[C@H]1CC[C@]2(O)C(=O)CO [hydrocortisone]
[1]
  Equivalent dose in chronotherapeutic administration, equal to 1 mg prednisolone: 4 mg
[2]
  Dose equal to 5 mg prednisolone (Normal dosing): 20 mg

## C[C@]12C=CC(=O)C=C1CC[C@@H]1[C@@H]2[C@@H](O)C[C@@]2(C)[C@H]1CC[C@]2(O)C(=O)CO [prednisolone]
[3]; 1 mg prednisolone
  IL-6: tendency for reduction
[3]; 5 mg prednisolone
  IL-6: reduced significantly
[3]; [10]
  IL-6: 28.1
[3]; [11]
  IL-6: 31.1
[3]; [12]
  IL-6: 22.8
[3]; [13]
  IL-6: 30.3
[3]; [14]
  IL-6: 18.5
[3]; [15]
  IL-6: 13.8
[4]
  time to Cmax or Tmax: 1 to 3 h
[5]; 1 mg prednisolone
  CRP: tendency for reduction
[5]; 5 mg prednisolone
  CRP: reduced significantly
[5]; [10]
  CRP: 35.5
[5]; [11]
  CRP: 31.2
[5]; [12]
  CRP: 25.8
[5]; [13]
  CRP: 36.6
[5]; [14]
  CRP: 31.1
[5]; [15]
  CRP: 19.1
[6]; Dose 1 mg at 02.00, Day 1
  HA: 241.9
[6]; Dose 1 mg at 02.00, Day 2
  HA: 320.3
[6]; Dose 1 mg at 02.00, Day 3
  HA: 372.5
[6]; Dose 5 mg at 02.00, Day 11
  HA: 322.5
[6]; Dose 5 mg at 02.00, Day 12
  HA: 339.5
[6]; Dose 5 mg at 02.00, Day 13
  HA: 193.9
[7]; [16]
  EMS: statistically significantly reduced
  Pain: statistically significantly reduced
  clinician's opinion: statistically significantly reduced
  patient's opinion: statistically significantly reduced
[7]; 5 mg prednisolone at 02.00
  Overall results compared with Arvidson et al.: well within the range of findings published by Arvidson et al.
[7]; Dose 1 mg at 02.00, Day 1
  More or Less (arthritis worse: -1 morning, 0 equal, +1 afternoon): −0.7
  Pain (VAS): 26.0 mm
  Painful Joints (tender joint count, n=28): 20.0
  Swollen Joints (swollen joint count, n=28): 18.7
  Cln Opn (clinician opinion of condition, VAS): 28.7 mm
  EMS (morning stiffness): 55.0 min
  Pt Opn (patient opinion of condition, VAS): 23.7 mm
[7]; Dose 1 mg at 02.00, Day 2
  More or Less (arthritis worse: -1 morning, 0 equal, +1 afternoon): −0.7
  Pain (VAS): 20.3 mm
  Painful Joints (tender joint count, n=28): 20.3
  Swollen Joints (swollen joint count, n=28): 18.7
  Cln Opn (clinician opinion of condition, VAS): 29.3 mm
  EMS (morning stiffness): 51.7 min
  Pt Opn (patient opinion of condition, VAS): 26.7 mm
[7]; Dose 1 mg at 02.00, Day 3
  More or Less (arthritis worse: -1 morning, 0 equal, +1 afternoon): 0.0
  Pain (VAS): 16.7 mm
  Painful Joints (tender joint count, n=28): 20.3
  Swollen Joints (swollen joint count, n=28): 18.3
  Cln Opn (clinician opinion of condition, VAS): 16.3 mm
  EMS (morning stiffness): 40.0 min
  Pt Opn (patient opinion of condition, VAS): 12.7 mm
[7]; Dose 5 mg at 02.00, Day 11
  More or Less (arthritis worse: -1 morning, 0 equal, +1 afternoon): −0.3
  Pain (VAS): 19.7 mm
  Painful Joints (tender joint count, n=28): 19.0
  Swollen Joints (swollen joint count, n=28): 18.0
  Cln Opn (clinician opinion of condition, VAS): 27.7 mm
  EMS (morning stiffness): 30.0 min
  Pt Opn (patient opinion of condition, VAS): 19.3 mm
[7]; Dose 5 mg at 02.00, Day 12
  More or Less (arthritis worse: -1 morning, 0 equal, +1 afternoon): −0.3
  Pain (VAS): 15.7 mm
  Painful Joints (tender joint count, n=28): 19.7
  Swollen Joints (swollen joint count, n=28): 17.3
  Cln Opn (clinician opinion of condition, VAS): 15.7 mm
  EMS (morning stiffness): 20.0 min
  Pt Opn (patient opinion of condition, VAS): 11.7 mm
[7]; Dose 5 mg at 02.00, Day 13
  More or Less (arthritis worse: -1 morning, 0 equal, +1 afternoon): −0.7
  Pain (VAS): 16.0 mm
  Painful Joints (tender joint count, n=28): 19.7
  Swollen Joints (swollen joint count, n=28): 14.0
  Cln Opn (clinician opinion of condition, VAS): 11.7 mm
  EMS (morning stiffness): 33.3 min
  Pt Opn (patient opinion of condition, VAS): 13.3 mm
[8]
  Efficacy in rheumatoid arthritis: effective

## C[C@]12C=CC(=O)C=C1CC[C@H]1[C@@H]3C[C@@H](O)[C@](O)(C(=O)CO)[C@@]3(C)C[C@H](O)[C@@]12F [triamcinolone]
[1]
  Equivalent dose in chronotherapeutic administration, equal to 1 mg prednisolone: 0.8 mg
[2]
  Dose equal to 5 mg prednisolone (Normal dosing): 4 mg
[9]
  Broadly similar dose in nasal administration: 110 µg

## methyl prednisone
[1]
  Equivalent dose in chronotherapeutic administration, equal to 1 mg prednisolone: 0.8 mg
[2]
  Dose equal to 5 mg prednisolone (Normal dosing): 4 mg
